Patent US5444063A, “Enantiomerically pure β-D-dioxolane nucleosides with selective anti-Hepatitis B virus activity” (priority 1992, dated 1995)
“And” between values parts separate entries of the source, which are not always exact repeats. Identical values can stand only once. Like-named read-outs stand apart in the source and are kept apart here.

Tests used:
[1] = system: HBV; test: Effect of nucleosides on HBV production in 2.2.15 cells (HBV virion DNA and intracellular HBV DNA); type: cell-based, Hepatitis B virus; conditions: for HBV virion DNA, day 0 / HBV virion DNA, day 3 / HBV virion DNA, day 6 / HBV virion DNA, day 9: individual culture; for HBV virion DNA, day 0, mean / HBV virion DNA, day 3, mean / HBV virion DNA, day 6, mean / HBV virion DNA, day 9, mean / Intracellular HBV DNA on Day 10, Mono, mean / Intracellular HBV DNA on Day 10, RI, mean: mean of 4 cultures; for inhibition at 1 µM / inhibition: Hepatitis B virus
Method: The ability of β-D-dioxolane-nucleosides to inhibit HBV can be measured by various experimental techniques. The assay used herein to evaluate the ability of the disclosed compounds to inhibit the replication of HBV is described in detail in Korba and Gerin, Antiviral Res. 19:55-70 (1992). […] The other compounds disclosed herein are evaluated similarly.
The antiviral evaluations were performed on two separate passages of cells, two cultures per passage (4 cultures total). All wells, in all plates, were seeded at the same density and at the same time.
Due to the inherent variations in the levels of both intracellular and extracellular HBV DNA, only depressions greater than 3.0-fold (for HBV virion DNA) or 2.5-fold (for HBV DNA replication intermediates) from the average levels for these HBV DNA forms in untreated cells are generally considered to be statistically significant [P<0.05] (Korba and Gerin, Antiviral Res. 19: 55-70, 1992). The levels of integrated HBV DNA in each cellular DNA preparation (which remain constant on a per cell basis in these experiments) were used to calculate the levels of intracellular HBV DNA forms, thereby eliminating technical variations inherent in the blot hybridization assays.
The test compounds were used in the form of 40 mM stock solutions in DMSO (frozen on dry ice). Daily aliquots of the test samples were made and frozen at -20° C. so that each individual aliquot would be subjected to a single freeze-thaw cycle. […] The compounds were tested for toxicity at concentrations up to 300 μM.

[2] = Toxicity analysis of test compounds in 2.2.15 cells (neutral red dye uptake); type: cell-based; conditions: human
Method: Toxicity analyses were performed in order to assess whether any observed antiviral effects are due to a general effect on cell viability. The method used was based on the uptake of neutral red dye, a standard and widely used assay for cell viability in a variety of virus-host systems, including HSV (herpes simplex virus) and HIV. Details of the procedure are provided in the toxicity table legends.
The test compounds were used in the form of 40 mM stock solutions in DMSO (frozen on dry ice). Daily aliquots of the test samples were made and frozen at -20° C. so that each individual aliquot would be subjected to a single freeze-thaw cycle. The daily test aliquots were thawed, suspended into culture medium at room temperature and immediately added to the cell cultures° The compounds were tested at 0.0 and 1 μM for antiviral activity. The compounds were tested for toxicity at concentrations up to 300 μM.
Toxicity analyses were performed in 96-well flat bottomed tissue culture plates. Cells for the toxicity analyses were cultured and treated with test compounds with the same schedule as used for the antiviral evaluations. Each compound was tested at 4 concentrations, each in triplicate cultures. Uptake of neutral red dye was used to determine the relative level of toxicity. The absorbance of internalized dye at […] (A510) was used for the quantitative analysis. Values are presented as a percentage of the average A510 values (±standard deviations) in 9 separate cultures of untreated cells maintained on the same 96-well plate as the test compounds.

[3] = 0.1 μM, listed as (-)- -2,6-dioxolane-G
[4] = 1.0 μM ("1.0 M" printed for the 2,6-DiNH2 compound), listed as (-)- -2,6-dioxolane-G
[5] = 1.0 μM ("1.0 M" printed for the 2,6-DiNH2 compound)
[6] = 0 h, 1.0 μM ("1.0 M" printed for the 2,6-DiNH2 compound), read-out: % inhibition, HBV virion DNA, day 0
[7] = 0 h, read-out: % inhibition, HBV virion DNA, day 0
[8] = 72 h, 1.0 μM ("1.0 M" printed for the 2,6-DiNH2 compound), read-out: % inhibition, HBV virion DNA, day 3
[9] = 72 h, read-out: % inhibition, HBV virion DNA, day 3
[10] = 144 h, 1.0 μM ("1.0 M" printed for the 2,6-DiNH2 compound), read-out: % inhibition, HBV virion DNA, day 6
[11] = 144 h, read-out: % inhibition, HBV virion DNA, day 6
[12] = 216 h, 1.0 μM ("1.0 M" printed for the 2,6-DiNH2 compound), read-out: % inhibition, HBV virion DNA, day 9
[13] = 216 h, read-out: % inhibition, HBV virion DNA, day 9
[14] = 240 h, 1.0 μM ("1.0 M" printed for the 2,6-DiNH2 compound), read-out: % inhibition, intracellular HBV DNA Mono, Day 10
[15] = 240 h, 1.0 μM ("1.0 M" printed for the 2,6-DiNH2 compound), read-out: % inhibition, intracellular HBV DNA RI, Day 10
[16] = 240 h, read-out: % inhibition, intracellular HBV DNA Mono, Day 10
[17] = 240 h, read-out: % inhibition, intracellular HBV DNA RI, Day 10
[18] = 0.1 μM, listed as (-)- -2,6-diNH2-purine-dioxolane
[19] = 1.0 μM ("1.0 M" printed for the 2,6-DiNH2 compound), listed as (-)- -2,6-DiNH2-purine-dioxolane

SMILES | HBV virion DNA, day 0, mean ([1]; 0.1 μM) | HBV virion DNA, day 3, mean ([1]; 0.1 μM) | HBV virion DNA, day 6, mean ([1]; 0.1 μM) | HBV virion DNA, day 9, mean ([1]; 0.1 μM) | Intracellular HBV DNA on Day 10, Mono, mean ([1]; 0.1 μM) | Intracellular HBV DNA on Day 10, RI, mean ([1]; 0.1 μM) | HBV virion DNA, day 0, mean [1, 5] | HBV virion DNA, day 3, mean [1, 5] | HBV virion DNA, day 6, mean [1, 5] | HBV virion DNA, day 9, mean [1, 5] | Intracellular HBV DNA on Day 10, Mono, mean [1, 5] | Intracellular HBV DNA on Day 10, RI, mean [1, 5] | inhibition at 1 µM [1, 6] [%] | inhibition [1, 7] [%] | inhibition at 1 µM [1, 8] [%] | inhibition [1, 9] [%] | inhibition at 1 µM [1, 10] [%] | inhibition [1, 11] [%] | inhibition at 1 µM [1, 12] [%] | inhibition [1, 13] [%] | other results
Nc1nc2c(ncn2[C@H]2CO[C@@H](CO)O2)c(=O)[nH]1 [Dioxolane-G, (-)-(2R,4R)-9-[(2-hydroxymethyl)-1,3-dioxolan-4-yl]guanine] | 62.75 pg/ml of cultured medium | 68.25 pg/ml of cultured medium | 70.25 pg/ml of cultured medium | 13.75 pg/ml of cultured medium | 2.35 pg/μM of cellular DNA | 24.00 pg/μM of cellular DNA | 62.25 pg/ml of cultured medium | 66.75 pg/ml of cultured medium | 22.25 pg/ml of cultured medium | 2.75 pg/ml of cultured medium | 1.85 pg/μM of cellular DNA | 4.75 pg/μM of cellular DNA | 1.19 | 0.4 | -1.54 | -5.41 | 71 | 8.47 | 96.3 | 81.5 | HBV virion DNA, day 0 [1, 3]: 51 pg/ml of cultured medium and 59 pg/ml of cultured medium and 74 pg/ml of cultured medium and 67 pg/ml of cultured medium; HBV virion DNA, day 3 [1, 3]: 77 pg/ml of cultured medium and 62 pg/ml of cultured medium and 73 pg/ml of cultured medium and 61 pg/ml of cultured medium; HBV virion DNA, day 6 [1, 3]: 60 pg/ml of cultured medium and 70 pg/ml of cultured medium and 69 pg/ml of cultured medium and 82 pg/ml of cultured medium; HBV virion DNA, day 9 [1, 3]: 18 pg/ml of cultured medium and 12 pg/ml of cultured medium and 14 pg/ml of cultured medium and 11 pg/ml of cultured medium; HBV virion DNA, day 0 [1, 4]: 70 pg/ml of cultured medium and 50 pg/ml of cultured medium and 56 pg/ml of cultured medium and 73 pg/ml of cultured medium; HBV virion DNA, day 3 [1, 4]: 86 pg/ml of cultured medium and 59 pg/ml of cultured medium and 56 pg/ml of cultured medium and 62 pg/ml of cultured medium; HBV virion DNA, day 6 [1, 4]: 22 pg/ml of cultured medium and 24 pg/ml of cultured medium and 23 pg/ml of cultured medium and 20 pg/ml of cultured medium; HBV virion DNA, day 9 ([1]; 1.0 μM ("1.0 M" printed for the 2,6-DiNH2 compound), zero = undetectable, listed as (-)- -2,6-dioxolane-G): 2 pg/ml of cultured medium and 4 pg/ml of cultured medium and 3 pg/ml of cultured medium; inhibition at 1 µM [1, 14]: 26.7%; inhibition at 1 µM [1, 15]: 93.5%; inhibition [1, 16]: 6.93%; inhibition [1, 17]: 67.3%; viability at 10 µM [2]: 100 ± 3%; viability at 30 µM [2]: 101 ± 2%; viability at 100 µM [2]: 88 ± 3%; viability at 300 µM [2]: 56 ± 3%
Nc1nc(N)c2ncn([C@H]3CO[C@@H](CO)O3)c2n1 [DAPD, (-)-(2R,4R)-2-amino-9-[(2-hydroxymethyl)-1,3-dioxolan-4-yl]adenine] | 62.75 pg/ml of cultured medium | 61.75 pg/ml of cultured medium | 30.75 pg/ml of cultured medium | 7.00 pg/ml of cultured medium | 2.35 pg/μM of cellular DNA | 12.00 pg/μM of cellular DNA | 67.75 pg/ml of cultured medium | 50.75 pg/ml of cultured medium | 12.00 pg/ml of cultured medium | 0.25 pg/ml of cultured medium | 1.15 pg/μM of cellular DNA | 2.25 pg/μM of cellular DNA | -7.54 | 0.4 | 21.6 | 4.63 | 84.4 | 59.9 | 99.7 | 90.6 | HBV virion DNA, day 0 ([1]; 0.1 μM): 77 pg/ml of cultured medium; HBV virion DNA, day 0 [1, 18]: 52 pg/ml of cultured medium and 58 pg/ml of cultured medium and 64 pg/ml of cultured medium; HBV virion DNA, day 3 [1, 18]: 67 pg/ml of cultured medium and 59 pg/ml of cultured medium and 62 pg/ml of cultured medium; HBV virion DNA, day 6 [1, 18]: 28 pg/ml of cultured medium and 34 pg/ml of cultured medium and 35 pg/ml of cultured medium and 26 pg/ml of cultured medium; HBV virion DNA, day 9 [1, 18]: 5 pg/ml of cultured medium and 6 pg/ml of cultured medium and 9 pg/ml of cultured medium and 8 pg/ml of cultured medium; HBV virion DNA, day 0 [1, 19]: 66 pg/ml of cultured medium and 70 pg/ml of cultured medium and 74 pg/ml of cultured medium and 61 pg/ml of cultured medium; HBV virion DNA, day 3 [1, 19]: 59 pg/ml of cultured medium and 45 pg/ml of cultured medium and 56 pg/ml of cultured medium and 43 pg/ml of cultured medium; HBV virion DNA, day 6 [1, 19]: 12 pg/ml of cultured medium and 10 pg/ml of cultured medium and 15 pg/ml of cultured medium and 11 pg/ml of cultured medium; HBV virion DNA, day 9 ([1]; 1.0 μM ("1.0 M" printed for the 2,6-DiNH2 compound), zero = undetectable, listed as (-)- -2,6-DiNH2-purine-dioxolane): 0 pg/ml of cultured medium and 1 pg/ml of cultured medium; inhibition at 1 µM [1, 14]: 54.5%; inhibition at 1 µM [1, 15]: 96.9%; inhibition [1, 16]: 6.93%; inhibition [1, 17]: 83.7%; viability at 10 µM [2]: 99 ± 1%; viability at 30 µM [2]: 99 ± 3%; viability at 100 µM [2]: 88 ± 1%; viability at 300 µM [2]: 49 ± 3%
